Source: patent US20110071100A1, “SULFOBETAINES FOR CANCER, OBESITY, MACULAR DEGENERATION, NEURODEGENERATIVE DISEASES” (TILTAN PHARMA LTD., priority 2008, published 2011)

Tested on: malignant (mammary carcinoma) tumor (EMT6/CTX)
Experiment: Tumor growth of malignant (mammary carcinoma) tumor (EMT6/CTX) in a mouse experimental model
Assay type: in vivo, CB6F1 male mice
Conditions: for effect on tumor growth, agent alone: i.p.; for inhibition of tumor growth, alone and in combination with Hamsa treatment (summary of experiments 1-4): SB-18 and CHAPS 40 mg/kg, SB-12 2.5 and 40 mg/kg
Experimental: In order to determine the effect of SB-18, CHAPS, SB-12, SB-16-4 and SB-18-4 each alone and each in combination with 4 other agents (“Hamsa treatment”), on tumor growth of a malignant (mammary carcinoma) tumor (EMT6/CTX) in a mouse experimental model, six (6) experiments were carried out as described below:
CB6F1 male mice (a cross between Balbc and C57bl) at age of 7-8 weeks were anesthetized with Ketamine:Xelazine in a 0.85:0.15 ratio respectively, and diluted 1:1 with double distilled water (DDW) and injected i.m. in volume of 50 uL.
100 uL of EMT6/CTX cells 3.6×10^5 cells/mouse were injected subcutaneously (s.c.) to the anesthetized mice, after shaving their back (to enable accurate measurement of tumor-volume). The mice were divided into four groups, as outlined below, 6-8 animals in each group. The mice were marked with Picric acid on head (H), tail (T), head and tail (H&T), right leg (RL), left leg (LL), right and left legs (SY), back and blank and were individually monitored.
“Hamsa treatment” as used herein consists of the following active ingredients in the following concentrations: • Cimetidine 60 mg/kg (Farchemia s.r.l. Italy). • Diclofenac 30 mg/kg (Unique Pharma India). • Cyclophosphamide (CTX) 60 mg/kg (Hisun China) • Sulfasalazine (SSZ) (Farchemia s.r.l. Italy)—50 mg/kg on days of cytotoxic treatment, i.e. on days when cyclophosphamide and diclofenac are administered; 150 mg/kg on days of non-cytotoxic treatment, i.e. on days when no cyclophosphamide and disclofenac are administered.
The preparation and administration protocol of the Hamsa treatment is outlined in Table 1:
SB-12, CHAPS and SB-18 (HOPAX Chem. Mfg. Ltd Taiwan) were prepared separately as aqueous solutions, then mixed 1:1 with Vehicle or the cytotoxic or non-cytotoxic stage of the Hamsa treatment and twice the volume was injected i.p. Due to its lower solubility, SB-18 was dissolved by mild warming (˜45° C.) of its aqueous solution in the presence of 2% Solutol HS-15 (BASF-Germany). In groups that received SB-12, CHAPS or SB-18, this agent was injected daily. […]
SB-16-4 was first dissolved in DDW containing 2% Solutol HS-15 with heating to 40° C. to 8 mg/mL concentration. The stock solution was diluted with non-cytotoxic and cytotoxic treatments in 1:1 ratio.
SB-18-4 was first dissolved in DDW containing 4% Solutol HS-15 with heating to 40° C. to 8 mg/mL concentration. The stock solution was diluted with non-cytotoxic and cytotoxic treatments in 1:1 ratio
• 1. 7 mice received vehicle (DDW+2% Solutol—BASF, Germany) • 2. 8 mice received Hamsa treatment • 3. 8 mice received Hamsa treatment in combination with SB-18 (40 mg/kg). • 4. 6 mice received SB-18 in vehicle (40 mg/kg)
• 1. 7 mice received vehicle (DDW+2% Solutol—BASF, Germany) • 2. 8 mice received Hamsa treatment • 3. 7 mice received Hamsa treatment in combination with CHAPS (40 mg/kg). • 4. 7 mice received CHAPS in vehicle (40 mg/kg)
• 1. 7 mice received vehicle (DDW+2% Solutol—BASF, Germany) • 2. 6 mice received Hamsa treatment. • 3. 7 mice received Hamsa treatment with SB-12 (2.5 mg/kg). • 4. 7 mice received SB-12 in vehicle (2.5 mg/kg)
• 1. 7 mice received vehicle (DDW+2% Solutol—BASF, Germany) • 2. 7 mice received Hamsa treatment • 3. 7 mice received Hamsa treatment with SB-12 (40 mg/kg).
• 1. 6 mice received vehicle (DDW+2% Solutol—BASF, Germany) • 2. 6 mice received Hamsa treatment • 3. 7 mice received Hamsa treatment in combination with SB-16-4 (40 mg/kg). • 4. 5 mice received SB-16-4 in vehicle (40 mg/kg)
• 1. 7 mice received vehicle (DDW+2% Solutol—BASF, Germany) • 2. 8 mice received Hamsa treatment • 3. 7 mice received Hamsa treatment in combination with SB-18-4 (40 mg/kg). • 4. 7 mice received SB-18-4 in vehicle (40 mg/kg)
Five (5) or six (6) days after inoculation, when the tumor is already palpable, the treatment was initiated by intraperitoneally (i.p.) injection of the indicated treatment, in a volume of 250 uL, once a day, every day, 6 days a week. […]

[1] = 40 mg/kg i.p. daily + Hamsa treatment (cimetidine, sulfasalazine, diclofenac, cyclophosphamide)
[2] = 40 mg/kg in vehicle, daily, s.c. EMT6/CTX tumor, tumor volume by caliper

SMILES | effect on tumor growth in combination with Hamsa treatment [1] | effect on tumor growth, agent alone [2] | inhibition of tumor growth, alone and in combination with Hamsa treatment (summary of experiments 1-4) | effect on tumor growth in combination with Hamsa treatment (2.5 mg/kg i.p. daily + Hamsa treatment (low dose)) | effect on tumor growth, agent alone (2.5 mg/kg in vehicle, daily (low dose))
CC(CCC(=O)NCCC[N+](C)(C)CCCS(=O)(=O)[O-])C1CCC2C3C(O)CC4CC(O)CCC4(C)C3CC(O)C12C (centres unmarked) [CHAPS, 3-[3-(Cholamidopropyl)dimethylamonio]-1-propanesulfonate] | has a synergistic effect | has an anti-tumor effect | inhibited tumor growth |  | 
CCCCCCCCCCCC[N+](C)(C)CCCS(=O)(=O)[O-] [SB-12, N-Dodecyl-N,N-Dimethyl-3-Ammonio-1-Propane Sulfonate, reference compound] | compromises the anti-tumor effect of Hamsa treatment |  | did not | slightly compromises the anti-tumor effect of the Hamsa treatment | does not inhibit tumor growth, but rather enhances tumor-growth
CCCCCCCCCCCCCCCC[N+](C)(C)CCCCS(=O)(=O)[O-] [SB-16-4, N,N-Dimethylhexadecyl-ammonium-1-(4-butylsulfonate)] | has a synergistic effect | has an anti-tumor effect |  |  | 
CCCCCCCCCCCCCCCCCC[N+](C)(C)CCCS(=O)(=O)[O-] [SB-18, N-Octadecyl-N,N-Dimethyl-3-Ammonio-1-Propane Sulfonate] | has a synergistic effect | has an anti-tumor effect | inhibited tumor growth |  | 
CCCCCCCCCCCCCCCCCC[N+](C)(C)CCCCS(=O)(=O)[O-] [SB-18-4, N,N-Dimethyloctadecyl-ammonium-1-(4-butylsulfonate)] | has a synergistic effect | has an anti-tumor effect |  |  | 
